Measured values: a melting point compilation (Tetko et al.; mined from patent text by program, amines drawn as free bases though some values may be those of a salt)

Compound	melting point
Cn1c(C(F)(F)F)cc(=O)n(-c2ccc(Cl)c(CO)c2)c1=O	192 to 194 °C
COc1cc2c(cc1O)C(OC)CN(Cc1cc(OC)c(OC)c(OC)c1)C2 (stereo unspecified)	51 to 54 °C
Nc1c2c(nc3ccc(Br)cc13)CCC2	236 to 238 °C
Cc1ccc([N+](=O)[O-])c(C)c1[N+](=O)[O-]	81 to 83 °C
CCCC1C(C(=O)OCC)C(O)(C(F)(F)F)NC(O)(C(F)(F)F)C1C(=O)OCC (stereo unspecified)	140 to 142 °C
CCOc1cc(Br)cc2c1OC(C)(C)C2	55 to 58 °C
O=C(Nc1nc(C(Cl)(Cl)Cl)ns1)c1cccc([N+](=O)[O-])c1	198 °C
CCCCCCSc1nn2c(=O)cc(Cl)nc2s1	95 to 96 °C
COc1cc2c(cc1OC)Nc1nccn1C2	215 to 217 °C
O=c1ccc(C(F)(F)F)cn1-c1ccc([N+](=O)[O-])cc1Cl	218 °C
Cc1nc2cc3c(cc2n1C)C(=O)OC3=O	310 to 315 °C
NNC(=O)c1ncn2c1[C@@H]1CCCN1C(=O)c1sccc1-2	> 260 °C
CCNC(=O)c1nc2n(n1)-c1ccc(Cl)cc1C(c1ccccc1F)=NC2	232 to 234 °C
CCCCCCCCCCCCCCCCOC(=O)c1cnc(C(=O)OCCCCCCCCCCCCCCCC)c2ccccc12	80.7 to 81.4 °C
N#CC=C(N)c1ccsc1	67 to 69.5 °C
N=C(N)c1ccc(N2CC(CN3CCC(CC(=O)O)(C(=O)O)CC3)OC2=O)cc1 (stereo unspecified)	145 °C
N#Cc1cnn2c(C(F)(F)F)cc(-c3ccccc3F)nc12	165 °C
CCCOc1nsnc1S(C)(=O)=O	30 to 31 °C
Cn1c(CO)nc2cc(Br)cnc21	142 to 144 °C
O=C1c2ccccc2OCOc2ccccc21	93 to 95 °C
CCC1(C)CC(=O)C(C(=O)Nc2cc(C(F)(F)F)cc(C(F)(F)F)c2)C(=O)C1 (stereo unspecified)	72 to 73 °C
O=C1c2ccccc2C(O)N1CCCCCO[N+](=O)[O-] (stereo unspecified)	70 to 72 °C
CCOC(=O)c1c(C)nc2sc(C)nc2c1NCCCN(C)C	53 to 54 °C
Cc1cccc2c1C(=O)C(=S)N2	265 °C

Compound	melting point
NS(=O)(=O)c1ccc(SCCO)s1	46.5 to 47.5 °C
O=c1[nH][nH]c(=O)n1-c1ccc(Cl)cc1	234 to 236 °C
CCNC(C)CCNC(CC(=O)O)C(=O)OC1CCCCC1 (stereo unspecified)	124 to 128 °C
CCC(C)OC(=O)C(C(=O)Nc1nc(C)cs1)=C1SCS1 (stereo unspecified)	153 to 154 °C
CN(C)C(=O)NNCC1CC2c3cccc4[nH]cc(c34)CC2N(C)C1 (stereo unspecified)	205 to 206 °C
Cc1cc2c(cc1C)C(C)(C)N(Cc1ccccc1)C2(C)C	98 to 100 °C
Sc1nnc(-c2cnccn2)s1	224 to 228 °C
CCOC(=O)C(=CNc1nnc(C(F)(F)F)s1)C(=O)c1cc(F)c(Cl)nc1Cl	73 to 76 °C
CCCCc1nnc2ccccc2c1Cl	50 °C
CC1(O)OC(=O)C(c2c(F)cc(F)cc2F)=C1c1cccs1 (stereo unspecified)	134 to 136 °C
O=C(N=c1sc2cc(OC(F)(F)F)ccc2n1CCO)C(F)(F)F	144 °C
CC(C)(C)OC(=O)CN1CCC(C)(N)C1=O (stereo unspecified)	72 to 77 °C
CCC[C@H]1CC[C@H](c2ccc(OCC)c(C#N)c2)CC1	32 °C
CC(=O)NC[C@H]1CN(c2ccc(N3CCC(n4nnc(N5CCN(C#N)CC5)n4)CC3)c(F)c2)C(=O)O1	208 to 210 °C
Cc1cc2c(c(C)c1NC(=O)OC(C)(C)C)CCO2	121 to 122 °C
CCCc1nc2cnc3ccc([N+](=O)[O-])cc3c2s1	228 to 230 °C
Cc1nn2cccnc2c1C#N	179 to 181 °C
CCOCCc1c(-c2ccccc2)n2nnnc2n2ncnc12	114 °C
CC1Cc2ccc(C#N)cc2C1=O (stereo unspecified)	95 °C
COCC(C)Nc1cc2c(=O)n(NS(C)(=O)=O)c(=O)[nH]c2cc1[N+](=O)[O-] (stereo unspecified)	103 to 111 °C
O=[N+]([O-])c1ccc(Nc2c(F)c(F)nc(F)c2F)c(C(F)(F)F)c1	104 to 105 °C
CC(=O)c1cc(O)c(O)c([N+](=O)[O-])c1	159 to 160 °C
c1ccc2c(c1)C1CC2(CC2CN(CC3CC3)CCO2)c2ccccc21 (stereo unspecified)	88 to 90 °C
COc1cc2c(cc1OC)C(CCCl)OCC2 (stereo unspecified)	161 to 163 °C

More lines, now with the values ahead:

melting point	Compound
218 to 222 °C	CCCc1c(OCc2cccc(OCc3ccc4ccccc4n3)c2)ccc2c(=O)cc(C(=O)O)oc12
278 to 282 °C	NC(=O)c1cc(Cl)ccc1SSc1ccc(Cl)cc1C(N)=O
143 to 145 °C	CCCOc1ccc(S(=O)(=O)N2CCN(CC)CC2)cc1C(=O)O
55.6 °C	CCOC(=O)C(Sc1ccc(O)cc1)c1ccc(Br)cc1 (stereo unspecified)
244 to 246 °C	COc1ccc(C(=O)Cc2c(Cl)cncc2Cl)c2c(CC(=O)NCc3ccccc3)coc12
265 to 268 °C	CCOC(=O)c1cn(-c2nnc(C)s2)c2nc(N3CC[C@H](N)C3)c(F)cc2c1=O
90 to 93 °C	COCCOC(=O)c1ccc(O)cc1
108 to 110 °C	O=C(O)CCCCCCCn1cc(-c2ccccc2)c(-c2ccccc2)n1
70 to 72 °C	CCC(=O)Cc1nc2ccccc2c(=O)o1
233 to 235 °C	Fc1ccc2[nH]c3c(c2c1)CN(CCc1ccncc1)CC3
132 to 134 °C	COc1ccc(-c2c(Cl)nc(Cl)nc2-c2ccccc2)cc1
240 to 241 °C	O=C1Nc2ccccc2S(=O)(=O)c2cc(C(F)(F)F)ccc21
145 °C	CCC(=O)Nc1ccc(C(=O)c2nc(-c3cccc(C(=O)O)c3)c3ccccn23)cc1OC
283 to 284 °C	COc1cc2[nH]cc(-c3cc4c(Cl)c(F)cnc4[nH]3)c2nc1OC
233 °C	Cc1cc(Nc2ccnc(Nc3ccc(S(=O)(=O)N4CCC(O)(CN(C)C)CC4)cc3)n2)ccc1F
133 to 134 °C	CC(=O)OCc1cccc(Nc2nccc(-c3cnn(C(C)=O)c3-c3ccccc3)n2)c1
129 to 133 °C	CC(C)Cn1cnc2cnc3ccc(OCc4ccccc4)cc3c21
138 to 139 °C	CN(C)CC(=O)N1c2ccccc2N(C)S(=O)(=O)c2ccc(Cl)cc21
125 to 126 °C	CN(C)C(=O)Nc1ccc(OCCc2ccccc2)c(N)c1
232 to 234 °C	Cc1cc(O)nn1C(=O)Nc1ccccc1

melting point	Compound
166 to 167 °C	Cc1nnc(Cl)c(-c2c(F)cccc2Cl)c1-c1ccc(Cl)nc1
129 to 131 °C	Cc1ccc(C=CC(=O)NCCCCN2CCN(C(c3ccccc3)c3ccccc3)CC2)cn1
132 °C	COc1ccc(Cl)cc1C(=O)Nc1ccc(C(F)(F)F)cc1
128 to 129 °C	O=C(Cc1ccc2ccn(C3CCN(CCc4ccccc4F)CC3)c2c1)NCCO
177 to 179 °C	COc1cc(CSc2nc3cnccc3[nH]2)cc(OC)c1
165 to 168 °C	COc1cc(OC)c2c(C)c3n(c(=O)c2c1)CCCC3
204 to 205 °C	COc1nc(C)cnc1NS(=O)(=O)c1cccnc1-c1ccc(OCc2ccc(C(=O)O)cc2)cc1
205 °C	CCCC(=O)NC(=O)C(c1ccccc1)c1ccccc1
158 to 159 °C	N#CCCNC(=O)c1cccc(-c2ccc(F)c3cc(Cc4cccc(C(F)(F)F)c4)oc23)c1
167 to 169 °C	Cc1nc(N2CCN(CCCC(F)(F)F)C2=O)sc1C(=O)NCc1cccnc1
98 to 101 °C	COC(=O)C(CCSC)NC(=O)c1ccc([N+](=O)[O-])cc1-c1ccccc1 (stereo unspecified)
240 to 242 °C	NC(=O)C1Oc2cc(Cl)c(S(=O)(=O)c3ccc(Cl)cc3)cc2O1 (stereo unspecified)
73 to 98 °C	Nc1nc2ccccc2c2c1ncn2CCCCNC(=O)COc1ccc(C(=O)c2ccccc2)cc1
98 to 100 °C	COC(=O)c1cccc(Sc2ccc([N+](=O)[O-])cc2)c1
135 to 140 °C	CC(N)C(=O)Nc1cc(OCC(F)(F)F)ccc1-c1cccnc1 (stereo unspecified)
48.5 to 50 °C	CC(=O)OCc1cccc(-c2ccco2)c1C
72 to 74 °C	CC(OCc1cc2cc(C(F)(F)F)ccc2n1S(=O)(=O)c1ccccc1)C(=O)O (stereo unspecified)
135 to 138 °C	COc1ccc(COc2cccnc2N)c(F)c1
98 to 99 °C	COc1c(-c2ccc(O)c(O)c2)oc2cc(O)c(CC=C(C)CCC=C(C)C)c(O)c2c1=O
166 °C	O=S1(=O)C=CC(c2ccccc2)(c2ccccc2)CC1

melting point	Compound
110 to 112 °C	CN(C)c1ccc(C(=O)CCCN2CCC(=C(c3ccccc3)c3ccccc3)CC2)cc1
> 300 °C	Nc1ccc2c3c1c(=O)c(C(=O)O)cn3CCC2
117 to 118 °C	CC(C)(C)OC(=O)c1ccc(C(=O)OC(C)(C)C)cc1
188 to 191 °C	CC(C)On1c(-c2ccccc2)nc2c(N)nc3ccccc3c21
> 250 °C	COc1ccc(CNc2nc(N3CCC(C(=O)O)CC3)nc3sc(Cl)cc23)cc1Cl
132 to 135 °C	Clc1ccc(OC(C(OCc2ccc(Cl)cc2Cl)c2ccc(Cl)cc2Cl)n2cncn2)cc1 (stereo unspecified)
130 to 133 °C	CC(C)S(=O)(=O)Oc1cn(C)c2cc(F)ccc2c1=O
146 to 147 °C	O=c1cc(CO)n(Cc2ccccc2)cc1OCc1ccccc1
207 to 210 °C	CCCc1nn(C)c2c(=O)[nH]c(Cc3cccc(N)c3)nc12
146 °C	C=CC(c1ccccc1)c1cc(C)c2c(c1O)C(=NO)CC2 (stereo unspecified)
192 to 193 °C	Cc1[nH]cnc1CSCCNc1[nH]cc(Cc2ccccc2)c1[N+](=O)[O-]
106 to 108 °C	COc1ccc(Cc2cc(CCNS(=O)(=O)c3ccc(Cl)cc3)cc(CCC(=O)O)c2)cc1
105 to 107 °C	C[Si](C)(C)CCCCCCCCCCCCCCNc1ccc(C(=O)O)cc1
90 to 92 °C	CCCc1c(SCCCOc2ccc(C#N)cc2)ccc(C(C)=O)c1O
140 to 142 °C	CCOC(=O)c1c(Nc2ccc(F)cc2[N+](=O)[O-])sc2c1CCCC2
93 to 95 °C	COc1cccc(-c2ccc(O)cc2)c1
82 to 84 °C	O=C(O)CCCCCCCNS(=O)(=O)c1ccccc1
125 to 126 °C	CCOc1cc(C=CC(=O)OC)ccc1OCc1coc(-c2ccccc2)n1
